Experimental data: patent publication US11642348B2, “Substituted benzene compounds” (Epizyme, Inc., priority 2012, dated 2023)
Where two headings read alike, the source gives them in different places.

Experiments:
[1] = test system: WSU-DLCL2 cells; test: Cell proliferation analysis (WSU-DLCL2, Cell Titer Glo); assay type: cell-based; conditions: Homo sapiens, 6 days
Source text: Cell Proliferation Analysis
WSU-DLCL2 suspension cells were purchased from DSMZ (German Collection of Microorganisms and Cell Cultures, Braunschweig, Germany). RPMI/Glutamax Medium, Penicillin-Streptomycin, Heat Inactivated Fetal Bovine Serum were purchased from Life Technologies, Grand Island, N.Y., USA. V-bottom polypropylene 384-well plates were purchased from Greiner Bio-One, Monroe, N.C., USA. Cell culture 384-well white opaque plates were purchased from Perkin Elmer, Waltham, Mass., USA. Cell-Titer Glo® was purchased from Promega Corporation, Madison, Wis., USA. SpectraMax M5 plate reader was purchased from Molecular Devices LLC, Sunnyvale, Calif., USA.
A compound source plate was prepared by performing triplicate nine-point 3-fold serial dilutions in DMSO, beginning at 10 mM (final top concentration of compound in the assay was 20 μM and the DMSO was 0.2%). A 100 nL aliquot from the compound stock plate was added to its respective well in the cell plate. […] After addition of compounds, assay plates were incubated for 6 days at 37° C., 5% CO2, relative humidity >90% for 6 days. Cell viability was measured by quantization of ATP present in the cell cultures, adding 35 μl of Cell Titer Glo® reagent to the cell plates. Luminescence was read in the SpectraMax M5. The concentration inhibiting cell viability by 50% was determined using a 4-parametric fit of the normalized dose response curves.

[2] = biological target: wild-type EZH2 (PRC2 complex) (Homo sapiens (Human), UniProt Q15910); test: PRC2 enzyme assay on peptide substrates (wild-type EZH2)
wild-type EZH2 (PRC2 complex), sequence (Q15910 other isoform, or with tags, fused parts or gaps): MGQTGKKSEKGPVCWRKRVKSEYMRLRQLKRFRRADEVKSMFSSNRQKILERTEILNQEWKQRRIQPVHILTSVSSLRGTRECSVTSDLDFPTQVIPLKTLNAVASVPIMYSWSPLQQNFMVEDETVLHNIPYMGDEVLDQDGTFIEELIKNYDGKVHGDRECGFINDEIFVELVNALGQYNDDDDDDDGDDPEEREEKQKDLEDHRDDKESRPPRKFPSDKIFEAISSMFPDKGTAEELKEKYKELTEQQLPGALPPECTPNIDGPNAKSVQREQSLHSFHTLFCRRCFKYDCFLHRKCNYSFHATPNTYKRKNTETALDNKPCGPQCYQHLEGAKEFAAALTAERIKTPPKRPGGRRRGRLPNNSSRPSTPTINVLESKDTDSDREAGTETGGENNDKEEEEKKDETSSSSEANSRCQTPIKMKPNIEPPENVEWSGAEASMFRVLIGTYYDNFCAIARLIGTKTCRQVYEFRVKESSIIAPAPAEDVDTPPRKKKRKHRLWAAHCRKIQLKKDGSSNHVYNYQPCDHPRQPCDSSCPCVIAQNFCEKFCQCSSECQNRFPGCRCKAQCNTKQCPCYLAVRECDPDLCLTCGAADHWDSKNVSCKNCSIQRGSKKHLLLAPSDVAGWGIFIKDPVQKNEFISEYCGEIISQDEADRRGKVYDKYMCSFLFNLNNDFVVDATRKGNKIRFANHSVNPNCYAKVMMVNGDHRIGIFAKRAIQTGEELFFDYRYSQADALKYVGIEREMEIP
wild-type EZH2 (PRC2 complex), sequence (O75530 whole entry partner): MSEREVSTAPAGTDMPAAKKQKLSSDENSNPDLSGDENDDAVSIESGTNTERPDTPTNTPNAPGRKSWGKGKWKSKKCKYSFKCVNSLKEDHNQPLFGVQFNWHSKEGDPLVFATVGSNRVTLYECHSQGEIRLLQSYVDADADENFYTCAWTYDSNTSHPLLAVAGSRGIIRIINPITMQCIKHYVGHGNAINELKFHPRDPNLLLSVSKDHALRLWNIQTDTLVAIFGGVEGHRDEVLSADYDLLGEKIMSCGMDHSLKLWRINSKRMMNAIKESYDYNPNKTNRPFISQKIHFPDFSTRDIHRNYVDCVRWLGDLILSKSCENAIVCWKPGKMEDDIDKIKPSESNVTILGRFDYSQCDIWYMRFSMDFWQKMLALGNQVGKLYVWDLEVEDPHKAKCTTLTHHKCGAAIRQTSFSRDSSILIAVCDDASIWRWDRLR
wild-type EZH2 (PRC2 complex), sequence (Q15022 whole entry partner): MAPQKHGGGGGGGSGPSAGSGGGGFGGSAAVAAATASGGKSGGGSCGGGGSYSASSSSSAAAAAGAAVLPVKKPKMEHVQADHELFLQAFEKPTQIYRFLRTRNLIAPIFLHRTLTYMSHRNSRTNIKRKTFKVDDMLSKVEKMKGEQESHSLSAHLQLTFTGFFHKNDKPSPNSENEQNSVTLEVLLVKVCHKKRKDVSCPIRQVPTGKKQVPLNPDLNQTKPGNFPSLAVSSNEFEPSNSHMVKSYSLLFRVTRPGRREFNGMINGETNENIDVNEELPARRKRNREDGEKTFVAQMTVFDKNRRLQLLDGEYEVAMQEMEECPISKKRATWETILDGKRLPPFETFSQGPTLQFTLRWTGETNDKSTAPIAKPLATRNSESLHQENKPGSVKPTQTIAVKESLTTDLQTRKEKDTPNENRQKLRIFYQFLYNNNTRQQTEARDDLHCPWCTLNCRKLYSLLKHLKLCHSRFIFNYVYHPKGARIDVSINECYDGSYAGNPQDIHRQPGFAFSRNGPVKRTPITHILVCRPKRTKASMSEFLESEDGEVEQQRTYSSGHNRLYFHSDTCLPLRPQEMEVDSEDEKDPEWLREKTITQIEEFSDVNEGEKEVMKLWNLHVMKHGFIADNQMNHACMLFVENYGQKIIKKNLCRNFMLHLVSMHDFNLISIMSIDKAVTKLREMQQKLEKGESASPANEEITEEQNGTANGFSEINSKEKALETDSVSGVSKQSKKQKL
wild-type EZH2 (PRC2 complex), sequence (Q09028 whole entry partner): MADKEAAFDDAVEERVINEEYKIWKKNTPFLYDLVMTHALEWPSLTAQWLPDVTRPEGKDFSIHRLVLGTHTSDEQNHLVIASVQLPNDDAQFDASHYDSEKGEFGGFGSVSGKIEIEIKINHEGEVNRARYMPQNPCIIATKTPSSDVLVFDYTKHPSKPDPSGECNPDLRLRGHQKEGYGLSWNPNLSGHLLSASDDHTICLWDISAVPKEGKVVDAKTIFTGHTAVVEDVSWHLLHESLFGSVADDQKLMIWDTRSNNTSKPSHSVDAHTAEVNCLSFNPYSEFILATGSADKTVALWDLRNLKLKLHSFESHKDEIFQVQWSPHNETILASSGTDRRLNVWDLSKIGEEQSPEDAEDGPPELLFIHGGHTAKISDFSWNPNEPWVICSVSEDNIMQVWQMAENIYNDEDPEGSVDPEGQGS

[3] = test system: H3K27me3 in WSU-DLCL2 cells; test: WSU-DLCL2 methylation assay (H3K27me3 ELISA); assay type: cell-based; conditions: Homo sapiens, 96 hours
Source text: WSU-DLCL2 suspension cells were purchased from DSMZ (German Collection of Microorganisms and Cell Cultures, Braunschweig, Germany). RPMI/Glutamax Medium, Penicillin-Streptomycin, Heat Inactivated Fetal Bovine Serum, and D-PBS were purchased from Life Technologies, Grand Island, N.Y., USA. Extraction Buffer and Neutralization Buffer (5×) were purchased from Active Motif, Carlsbad, Calif., USA. Rabbit anti-Histone H3 antibody was purchased from Abcam, Cambridge, Mass., USA. Rabbit anti-H3K27me3 and HRP-conjugated anti-rabbit-IgG were purchased from Cell Signaling Technology, Danvers, Mass., USA. TMB “Super Sensitive” substrate was sourced from BioFX Laboratories, Owings Mills, Md., USA. IgG-free Bovine Serum Albumin was purchased from Jackson ImmunoResearch, West Grove, Pa., USA. PBS with Tween (10×PBST) was purchased from KPL, Gaithersburg, Md., USA. Sulfuric Acid was purchased from Ricca Chemical, Arlington, Tex., USA. Immulon ELISA plates were purchased from Thermo, Rochester, N.Y., USA. V-bottom cell culture plates were purchased from Corning Inc., Corning, N.Y., USA. V-bottom polypropylene plates were purchased from Greiner Bio-One, Monroe, N.C., USA.
WSU-DLCL2 cells were seeded in assay medium at a concentration of 50,000 cells per mL to a 96-well V-bottom cell culture plate with 200 μL per well. […] Plates were incubated on a titer-plate shaker at 37° C., 5% CO2 for 96 hours. After four days of incubation, plates were spun at 241×g for five minutes and medium was aspirated gently from each well of cell plate without disturbing cell pellet. Pellet was resuspended in 200 μL DPBS and plates were spun again at 241×g for five minutes. The supernatant was aspirated and cold (4° C.) Extraction buffer (100 μL) was added per well. Plates were incubated at 4° C. on orbital shaker for two hours. […] Supernatant (80 μL per well) was transferred to its respective well in 96 well V-bottom polypropylene plate. Neutralization Buffer 5× (20 μL per well) was added to V-bottom polypropylene plate containing supernatant. V-bottom polypropylene plates containing crude histone preparation (CHP) were incubated on orbital shaker×five minutes. Crude Histone Preparations were added (2 μL per well) to each respective well into duplicate 96 well ELISA plates containing 100 μL Coating Buffer (1×PBS+BSA 0.05% w/v). Plates were sealed and incubated overnight at 4° C. The following day, plates were washed three times with 300 μL per well 1×PBST. […] For H3K27me3 detection, 100 μL of HRP conjugated anti-rabbit IgG antibody diluted to 1:4000 in ELISA diluent was added per well. Plates were incubated at room temperature for 90 minutes. […] TMB substrate 100 μL was added per well. Histone H3 plates were incubated for five minutes at room temperature. H3K27me3 plates were incubated for 10 minutes at room temperature. The reaction was stopped with sulfuric acid 1N (100 μL per well). Absorbance for each plate was read at 450 nm.
Each plate included eight control wells of DMSO only treatment (Minimum Inhibition) as well as eight control wells for maximum inhibition (Background wells).
The average of the ratio values for each control type was calculated and used to determine the percent inhibition for each test well in the plate. […] Percent inhibition was determined and IC50 curves were generated using duplicate wells per concentration of compound.

[4] = WSUDLCL2, Table 3B, read-out: WSU proliferation IC50
[5] = read-out: WT EZH2 IC50, Table 3B, wild-type PRC2 enzyme, peptide substrate
[6] = WSUDLCL2, Table 3B, read-out: ELISA H3K27me3 IC50
[7] = WSUDLCL2, Table 3A, read-out: WSU Prolif. IC50
[8] = WSUDLCL2, Table 3A, read-out: H3K27Me3 ELISA IC50

Compound | IC50 [1, 4] | IC50 [2, 5] | IC50 [3, 6] | IC50 [1, 7] | IC50 [2] | IC50 [3, 8]
CCN(c1cc(C#CCN2CC(O)C2)cc(C(=O)NCc2c(C(C)C)cc(C)[nH]c2=O)c1C)[C@H]1CC[C@H](N(C)C)CC1 [Compound 110] | 2.45 µM | < 0.01 µM | 2.01 µM | – | – | –
CCN(c1cc(C#CCN2C[C@@H](C)N[C@@H](C)C2)cc(C(=O)NCc2c(C(C)C)cc(C)[nH]c2=O)c1C)C1CCOCC1 [Compound 101] | 0.536 µM | < 0.01 µM | 0.126 µM | – | – | –
CCN(c1cc(C#CC2CCN(C[C@@H](C)O)CC2)cc(C(=O)NCc2c(C(C)C)cc(C)[nH]c2=O)c1C)C1CCOCC1 [Compound 102] | 0.614 µM | 0.01 µM | 0.256 µM | – | – | –
CCN(c1cc(-c2cnc(OC3CCN(C)CC3)cn2)cc(C(=O)NCc2c(C)cc(C)[nH]c2=O)c1C)C1CCOCC1 [Compound 132] | 0.526 µM | 0.02 µM | 0.177 µM | – | – | –
CCN(c1cc(-c2ccc(COC)nc2)cc(C(=O)NCc2c(C)cc(C)[nH]c2=O)c1C)[C@H]1CC[C@H](N(C)C)CC1 [Compound 152] | 0.412 µM | 0.018 µM | 0.06 µM | – | – | –
CCN(c1cc(-c2ccc(OC)nc2)cc(C(=O)NCc2c(C)cc(C)[nH]c2=O)c1C)C1C[C@@H](C)N[C@H](C)C1 (some centres unmarked) [Compound 120] | 1.38 µM | < 0.01 µM | 1.43 µM | – | – | –
CCN(c1cc(F)cc(C(=O)NCc2c(C)cc(C)[nH]c2=O)c1C)C1C[C@@H](C)N(C)[C@H](C)C1 (some centres unmarked) [Compound 118] | 3.95 µM | 0.0363 µM | 11.7 µM | – | – | –
CCN(c1cc(-c2ccc(CN3CC(O)C3)nc2)cc(C(=O)NCc2c(C)cc(C)[nH]c2=O)c1C)[C@H]1CC[C@H](N(C)C)CC1 [Compound 151] | 0.682 µM | < 0.01 µM | 0.618 µM | – | – | –
CCN(c1cc(-c2ccc(OCCO)nc2)cc(C(=O)NCc2c(C)cc(C)[nH]c2=O)c1C)[C@H]1CC[C@H](N(C)C)CC1 [Compound 4, N-((4,6-dimethyl-2-oxo-1,2-dihydropyridin-3-yl)methyl)-3-(((trans)-4-(dimethylamino)cyclohexyl)(ethyl)amino)-5-(6-(2-hydroxyethoxy)pyridin-3-yl)-2-methylbenzamide] | – | – | – | 23.6 µM | 0.0089 µM | 21.8 µM
CCN(c1cc(-c2cnc(OC(C)C)cn2)cc(C(=O)NCc2c(C)cc(C)[nH]c2=O)c1C)C1CCOCC1 [Compound 127] | 0.717 µM | < 0.01 µM | 0.525 µM | – | – | –
CCN(c1cc(-c2ccc(C)nc2)cc(C(=O)NCc2c(C)cc(C)[nH]c2=O)c1C)[C@H]1CC[C@H](N(C)CCOC)CC1 [Compound 15] | – | – | – | 0.346 µM | 0.00486 µM | 0.34 µM
CCN(c1cc(-c2cnc(OC)cn2)cc(C(=O)NCc2c(C(C)C)cc(C)[nH]c2=O)c1C)C1CCOCC1 [Compound 126] | 0.906 µM | < 0.01 µM | 2.03 µM | – | – | –
CCN(c1cccc(C(=O)NCc2c(C)cc(C)[nH]c2=O)c1C)[C@H]1CC[C@H](N(C)CCOC)CC1 [Compound 10, N-((4,6-dimethyl-2-oxo-1,2-dihydropyridin-3-yl)methyl)-3-(ethyl((trans)-4-((2-methoxyethyl)(methyl)amino)cyclohexyl)amino)-2-methylbenzamide] | – | – | – | 0.307 µM | 0.00736 µM | 0.469 µM
CCN(c1cc(F)cc(C(=O)NCc2c(C)cc(C)[nH]c2=O)c1C)C1C[C@@H](C)N(CC)[C@H](C)C1 (some centres unmarked) [Compound 119] | 3.38 µM | 0.0185 µM | 11.3 µM | – | – | –
CCN(c1cc(C#CC(C)(C)O)cc(C(=O)NCc2c(C)cc(C)[nH]c2=O)c1C)[C@H]1CC[C@H](N(C)CCOC)CC1 [Compound 8, N-((4,6-dimethyl-2-oxo-1,2-dihydropyridin-3-yl)methyl)-3-(ethyl((trans)-4-((2-methoxyethyl)(methyl)amino)cyclohexyl)amino)-5-(3-hydroxy-3-methylbut-1-yn-1-yl)-2-methylbenzamide] | – | – | – | 0.11 µM | 0.00882 µM | 0.292 µM
CCN(c1cc(C#CC2CCN(C[C@H](C)O)CC2)cc(C(=O)NCc2c(C(C)C)cc(C)[nH]c2=O)c1C)C1CCOCC1 [Compound 103] | 0.745 µM | < 0.01 µM | 0.232 µM | – | – | –
CCN(c1cc(-c2cnc(C(F)(F)F)cn2)cc(C(=O)NCc2c(C)cc(C)[nH]c2=O)c1C)C1CCOCC1 [Compound 128] | 0.975 µM | < 0.01 µM | 1.55 µM | – | – | –
CCN(c1cc(-c2ccc(OC)nc2)cc(C(=O)NCc2c(C)cc(C)[nH]c2=O)c1C)[C@H]1CC[C@H](N(C)CCOC)CC1 [Compound 16] | – | – | – | 0.675 µM | 0.00596 µM | 0.287 µM
CCN(c1cc(-c2ccc(C(=O)NCCO)cc2)cc(C(=O)NCc2c(C(C)C)cc(C)[nH]c2=O)c1C)C1CCOCC1 [Compound 156] | 0.89 µM | < 0.01 µM | 0.684 µM | – | – | –

Compound | IC50 [1, 4] | IC50 [2, 5] | IC50 [3, 6] | IC50 [1, 7] | IC50 [2] | IC50 [3, 8]
CCN(c1cc(C#CCN2CCCCC2)cc(C(=O)NCc2c(C)cc(C)[nH]c2=O)c1C)C1CCOCC1 [Compound 106] | 0.188 µM | < 0.01 µM | 0.044 µM | – | – | –
CCN(c1cc(-c2ccc(CN3CCOCC3)nc2)cc(C(=O)NCc2c(C)cc(C)[nH]c2=O)c1C)C1C[C@@H](C)N[C@H](C)C1 (some centres unmarked) [Compound 121] | 3.83 µM | < 0.01 µM | 13.9 µM | – | – | –
CCN(c1cc(F)cc(C(=O)NCc2c(C)c(F)c(C)n(C)c2=O)c1C)C1C[C@@H](C)N[C@H](C)C1 (some centres unmarked) [Compound 115] | > 20 µM | 0.497 µM | > 25 µM | – | – | –
CCN(c1cc(-c2ccc(CN3CCNCC3)nc2)cc(C(=O)NCc2c(C)cc(C)[nH]c2=O)c1C)C1C[C@@H](C)N[C@H](C)C1 (some centres unmarked) [Compound 123] | 7.9 µM | < 0.01 µM | > 25 µM | – | – | –
CCN(c1cc(-c2cnc(OC)cn2)cc(C(=O)NCc2c(C)cc(C)[nH]c2=O)c1C)[C@H]1CC[C@H](N(C)CCOC)CC1 [Compound 17] | – | – | – | 0.507 µM | 0.0129 µM | 0.402 µM
CCN(c1cc(-c2ccc(OCCO)cc2)cc(C(=O)NCc2c(C)cc(C)[nH]c2=O)c1C)[C@H]1CC[C@H](N(C)C)CC1 [Compound 3, N-((4,6-dimethyl-2-oxo-1,2-dihydropyridin-3-yl)methyl)-5-(((trans)-4-(dimethylamino)cyclohexyl)(ethyl)amino)-4′-(2-hydroxyethoxy)-4-methyl-[1,1′-biphenyl]-3-carboxamide] | – | – | – | 0.186 µM | 0.0113 µM | –
CCN(c1cc(F)cc(C(=O)NCc2c(C(C)C)cc(C)[nH]c2=O)c1C)C1C[C@@H](C)N[C@H](C)C1 (some centres unmarked) [Compound 117] | > 20 µM | 0.35 µM | 8.96 µM | – | – | –
CCN(c1cc(-c2cnc(N3CCN(C)CC3)cn2)cc(C(=O)NCc2c(C)cc(C)[nH]c2=O)c1C)[C@H]1CC[C@H](N(C)C)CC1 [Compound 149] | 0.316 µM | < 0.01 µM | 0.02 µM | – | – | –
CCN(c1cc(C#CCN2CCN(C)CC2)cc(C(=O)NCc2c(C)cc(C)[nH]c2=O)c1C)[C@H]1CC[C@H](N(C)CCOC)CC1 [Compound 7, N-((4,6-dimethyl-2-oxo-1,2-dihydropyridin-3-yl)methyl)-3-(ethyl((trans)-4-((2-methoxyethyl)(methyl)amino)cyclohexyl)amino)-2-methyl-5-(3-(4-methylpiperazin-1-yl)prop-1-yn-1-yl)benzamide] | – | – | – | 0.651 µM | 0.021 µM | 0.458 µM
CCN1CCC(C#Cc2cc(C(=O)NCc3c(C)cc(C)[nH]c3=O)c(C)c(N(CC)C3CCOCC3)c2)CC1 [Compound 104] | 0.549 µM | < 0.01 µM | 0.066 µM | – | – | –
CCCc1cc(C)[nH]c(=O)c1CNC(=O)c1cc(F)cc(N(CC)C2C[C@@H](C)N[C@H](C)C2)c1C (some centres unmarked) [Compound 116] | 13.2 µM | 0.132 µM | > 25 µM | – | – | –
CCN(c1cc(C#CCN2CC(O)C2)cc(C(=O)NCc2c(C)cc(C)[nH]c2=O)c1C)[C@H]1CC[C@H](N(C)C)CC1 [Compound 109] | 1.06 µM | < 0.01 µM | 0.244 µM | – | – | –
CCN(c1cc(F)cc(C(=O)NCc2c(C)cc(C)n(C)c2=O)c1C)C1C[C@@H](C)N[C@H](C)C1 (some centres unmarked) [Compound 113] | > 20 µM | 1.22 µM | > 25 µM | – | – | –
CCN(c1cc(-c2cncnc2)cc(C(=O)NCc2c(C)cc(C)[nH]c2=O)c1C)[C@H]1CC[C@H](N(C)CCOC)CC1 [Compound 21] | – | – | – | 1.39 µM | 0.0101 µM | 0.84 µM
CCN(c1cc(-c2ccc(CN3CC[C@H](O)C3)nc2)cc(C(=O)NCc2c(C(C)C)cc(C)[nH]c2=O)c1C)[C@H]1CC[C@H](N(C)C)CC1 [Compound 150] | 0.361 µM | < 0.01 µM | 0.377 µM | – | – | –
CCN(c1cc(F)cc(C(=O)NCc2c(C)cc(C)[nH]c2=O)c1C)[C@H]1CC[C@H](N(C)CCOC)CC1 [Compound 9, N-((4,6-dimethyl-2-oxo-1,2-dihydropyridin-3-yl)methyl)-3-(ethyl((trans)-4-((2-methoxyethyl)(methyl)amino)cyclohexyl)amino)-5-fluoro-2-methylbenzamide] | – | – | – | 1.31 µM | 0.0053 µM | 0.515 µM
CCN(c1cc(-c2ccc(CN3CCC[C@H](O)C3)nc2)cc(C(=O)NCc2c(C)cc(C)[nH]c2=O)c1C)[C@H]1CC[C@H](N(C)C)CC1 [Compound 147] | 0.116 µM | < 0.01 µM | 0.0743 µM | – | – | –
CCN(c1cc(-c2ccc(CN3CC[C@H](O)C3)nc2)cc(C(=O)NCc2c(C)cc(C)[nH]c2=O)c1C)[C@H]1CC[C@H](N(C)C)CC1 [Compound 148, N-((4,6-Dimethyl-2-oxo-1,2-dihydropyridin-3-yl)methyl)-3-((4-trans-(dimethylamino)cyclohexyl)(ethyl)amino)-5-(6-(((S)-3-hydroxypyrrolidin-1-yl)methyl)pyridin-3-yl)-2-methylbenzamide] | 0.243 µM | < 0.01 µM | 0.504 µM | – | – | –
